Measured values as given in patent US20180161459A1, “Methods of Screening for Drugs to Prevent Noise-Induced Hearing Loss” (Sound Pharmaceuticals Incorporated, priority 2015, published 2018).

What was measured:
human subjects [1] = test: Calibrated sound challenge: temporary threshold shift (TTS) by serial pure tone audiometry, randomized double-blinded placebo-controlled Phase 2 study; assay type: in vivo
Protocol: (§1) A study was performed to evaluate the safety and efficacy of an orally delivered candidate composition in human subjects. The candidate composition ebselen (aka. SPI-1005) was evaluated for efficacy using the methods disclosed herein. Ebselen or placebo was administered in a randomized double-blinded study to subjects, who were then exposed to a calibrated sound or noise challenge. Post-sound exposure pure tone audiometry was compared with baseline (i.e., immediately pre-sound exposure) testing to determine group mean level hearing threshold shift changes between treated and placebo groups. The single center, randomized, double-blinded, placebo-controlled study enrolled 83 subjects, all between the ages of 18 and 31. All enrolled subjects ranged from having slight hearing loss (less than or equal to 25 dB HL) to normal hearing.
Each subject was instructed to avoid non-occupational sound exposure (e.g., concerts, firearms, fireworks, power tools) during the 24-hour period preceding baseline testing and throughout the duration of the study. Vital signs (i.e., heart rate, blood pressure, respirations, temperature) were within normal limits for each subject. Subjects had conventional audiologic assessments at baseline consisting of: (a) pure tone audiometry to confirm that subjects had symmetric hearing with air conduction thresholds no worse than 25 dB HL at frequencies between 0.25 to 8 kHz bilaterally, (b) no significant threshold asymmetry (i.e. greater than 15 dB) between any subject's ears at any tested frequency,(c) no significant air-bone gaps (i.e. greater than 10 dB). Bone conduction testing with masking as conducted at screening at 250, 500, 1000, 2000, or 4000 Hz if the air-conduction threshold was greater than 15 dB HL, and (d) Type A tympanograms bilaterally, defined as a range of −140 to +40 daPa based on the 90% range for adults. Subjects with pure tone audiometry hearing thresholds>25 dB HL at any tested frequency (250, 500, 1000, 2000, 3000, 4000, 6000, and 8000 Hz) for either ear were excluded from the study.
Ebselen, or 2-phenyl-1,2-benzisoselenazol-3 (2H)-one, was selected as a candidate composition. The ebselen formulation was a capsule containing 200 mg of ebselen and 150 mg of the excipients microcrystalline cellulose, sodium croscarmellose, and magnesium sterate. Each subject received ebselen at one of three dosages (either 200 mg, 400 mg, or 600 mg) or received a placebo, delivered orally twice daily for four days, beginning two days prior to exposure to a controlled sound and continuing on the day of and on the day following the exposure to the controlled sound. The study was randomized to assign each subject to a treatment or placebo group. All subjects took 3 capsules in the morning (AM) and 3 capsules in the evening (PM) (each capsule either contained 200 mg ebselen or placebo), ideally 12 hours apart.
On Day 3 of the ebselen treatment, subjects underwent audiometric testing immediately prior to sound-exposure to establish their baseline hearing levels. Subjects listened to a 100 dBA SPL sound exposure delivered via insert earphones from a Personal Music Player (PMP, specifically an iPod®) for 4 continuous hours. The sound exposure method was similar to that discussed in Le Prell, C. et al., Ear & Hearing 33:e44-e58, 2012, hereby incorporated by reference in its entirety. The music levels were measured using Bruel & Kjaer type 4157 artificial ear couplers. Subjects listened to sound from music playlists with a choice of rock or pop music. No changes in volume or duration of the sound exposure were permitted. At 15 minutes, 75 minutes, 135 minutes, 195 minutes, 24 hours, and 1 week after sound exposure, subjects were tested for pure tone audiometric thresholds. Serial pure tone audiometry determined the incidence (greater or equal to 10 dB HL), severity (dB HL) and duration (up to 1 week post sound exposure) of the TTS. Audiometric data was collected at 250, 500, 1000, 2000, 3000, 4000, 6000, and 8000 Hz. […]

human subjects [2] = test: Safety and tolerability of orally delivered ebselen in the Phase 2 study; assay type: in vivo; details: oral 200, 400 or 600 mg twice daily for four days; CBC, Chemistry-20, Chest X-ray
Protocol: as §1
Ebselen, or 2-phenyl-1,2-benzisoselenazol-3 (2H)-one, was selected as a candidate composition. […]
Side effects of the ebselen delivery were analyzed. Clinical signs and symptoms from physical exam were evaluated, such as shortness of breath, wheezing, coughing, hemoptysis, resting pulse oximetry, chest X-rays, and laboratory findings such as hematology, chemistry, and urinalysis. Exposure to ebselen was quantified from plasma by LC-MS/MS. […]

In the case of O=c1c2ccccc2[se]n1-c1ccccc1 [ebselen, 2-phenyl-1,2-benzisoselenazol-3 (2H)-one], the “TTS at 4 kHz vs. placebo at later time points” value (human subjects [1]; 1.25, 2.25 and 3.25 hours post sound exposure, 400 mg dose group, ITT) is reported as “significantly reduced”, the “TTS incidence (subjects with greater or equal to 10 dB HL shift in either ear)” value (human subjects [1]; 15 minutes post 100 dBA SPL 4 h sound exposure, oral twice daily for four days, 600 mg dose most effective, ITT, placebo 60%) is reported as 20% and the “TTS averaged across all tested frequencies, or mean across 3, 4, 6 kHz or 4, 6, 8 kHz” value (human subjects [1]; 15 minutes post sound exposure, 400 mg dose most effective, ITT) is reported as “clinically relevant reductions”. For the same compound, the “TTS severity at 4 kHz” value (human subjects [1]; 15 minutes post sound exposure, oral twice daily for four days, 400 mg dose most effective, ITT, placebo 4.1) was 1.3 dB HL, the “Incidence of subjects that returned to baseline hearing within 24 hours” value (human subjects [1]; all ebselen treatment groups compared with placebo, FIG. 2) was “greater incidence of subjects that returned to baseline hearing within 24 hours” and the TTS duration (human subjects [1]; oral twice daily for four days, placebo 24 hrs) was 1.3 h. The “Tolerability / drug-related adverse events” value (human subjects [2]) was “well-tolerated with no drug-related adverse events”.
